Results taken from patent EP1638538B1, “DOSAGE FORM” (priority 2003, dated 2005).

Test: Time for complete absorption of sunflower oil into compressed sporopollenin tablets with an absorption aiding liquid
Type: physicochemical
Description: Sporopollenin (0.5 g) tablets were prepared by compressing in a 16 mm die at a pressure of 10 tonnes for 2 min. […] The resulting powder was dried in a dessicator over P2O5 in oven at 50°C until constant weight.

[1] = sunflower oil (1 ml) + liquid (1 ml), 0.5 g tablet, room temperature

Time for complete absorption (sunflower oil, repeated at 40 °C)	SMILES	Time for complete absorption [1]
	CC#N [acetonitrile]	20 s
	ClCCl [dichloromethane]	35 s
12 s	CCO [ethanol]	20 s
	CCOC(C)=O [ethyl acetate]	50 s
